Source: patent US20260226073A1 (AURIGENE ONCOLOGY LIMITED, priority 2023, published 2026)

What was measured:
[1] = molecular target: T1, human recombinant CBL-b (human Biotin CBL-b recombinant protein a.a. 39-426) (Homo sapiens, UniProt Q13191); experiment: Biochemical assay for CBL-b inhibition (ligand displacement TR-FRET); assay type: binding; conditions: 50 nM CBL-b, 0.3 μM Bodipy FL-Probe, read-out: IC50 (CBL-b inhibition, group)
T1 construct: human Biotin CBL-b recombinant protein a.a; 39-426; Biotin (biotinylated); made in house
Method in brief: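 Biotinylated CBL-b (a.a. 39-426, 50 nM final) pre-incubated with compound 60 min at RT in HEPES/NaCl/Triton/BSA/TCEP buffer, then Bodipy FL probe (0.3 μM final) 60 min, then terbium-streptavidin 60 min. TR-FRET read at 665/615 nm; IC50 and % max inhibition from sigmoidal fits.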

[2] = tested on: NFAT signaling pathway in Jurkat NFAT reporter cells; experiment: Jurkat NFAT reporter assay; assay type: cell-based; conditions: Homo sapiens, 30 min with compound, then soluble anti-human CD3/CD28 antibody for 6 hours, luciferase readout, read-out: EC50 (Group)
Method in brief: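 Jurkat cells bearing an NFAT-RE-driven luciferase reporter (1×10^5 per well) preincubated with Cbl-b inhibitor for 30 min, then stimulated 6 h with soluble anti-CD3/CD28. Luminescence read with Bio-Glo; values are fold change over anti-CD3/CD28-stimulated cells without inhibitor.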

T1 sequence (Q13191 39-426): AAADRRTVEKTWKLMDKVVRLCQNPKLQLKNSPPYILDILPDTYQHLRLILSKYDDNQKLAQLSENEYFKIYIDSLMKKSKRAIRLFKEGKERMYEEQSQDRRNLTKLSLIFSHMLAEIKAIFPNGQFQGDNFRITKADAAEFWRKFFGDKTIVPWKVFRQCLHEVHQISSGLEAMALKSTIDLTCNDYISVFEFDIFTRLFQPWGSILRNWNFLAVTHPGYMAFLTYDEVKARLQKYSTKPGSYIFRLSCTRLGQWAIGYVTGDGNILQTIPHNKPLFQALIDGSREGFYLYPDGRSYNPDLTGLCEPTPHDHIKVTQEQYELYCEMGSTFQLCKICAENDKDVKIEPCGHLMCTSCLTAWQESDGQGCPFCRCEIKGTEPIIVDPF

Row | Compound | IC50 [1] | EC50 [2]
1 | Cc1cc(CNCC2CC(F)(F)C2)cc(N2Cc3ccc(-c4ccc(F)cc4-c4nncn4C)cc3C2=O)n1 [Compound 260, 2-(4-((((3,3-Difluorocyclobutyl)methyl)amino)methyl)-6-methylpyridin-2-yl)-6-(4-fluoro-2-(4-methyl-4H-1,2,4-triazol-3-yl)phenyl)isoindolin-1-one] | < 80 nM | < 300 nM
2 | Cc1nc(N2Cc3ccc(-c4ccc(F)cc4-c4nncn4C)cc3C2=O)cc(CNCC2CC2)c1F [Compound 261, 2-(4-(((Cyclopropylmethyl)amino)methyl)-5-fluoro-6-methylpyridin-2-yl)-6-(4-fluoro-2-(4-methyl-4H-1,2,4-triazol-3-yl)phenyl)isoindolin-1-one] | < 80 nM | 1000 to 10000 nM
3 | Cc1cc(CNCC2CC2)cc(N2Cc3ccc(-c4ncc(Cl)cc4-c4nncn4C)cc3C2=O)n1 [Compound 263, 6-(5-Chloro-3-(4-methyl-4H-1,2,4-triazol-3-yl)pyridin-2-yl)-2-(4-(((cyclo-propylmethyl)amino)methyl)-6-methylpyridin-2-yl)isoindolin-1-one] | < 80 nM | 1000 to 10000 nM
4 | COc1ccc(-c2ccc3c(c2)C(=O)N(c2cc(CNCC4CC4)cc(C)n2)C3)c(-c2nncn2C)c1 [Compound 273, 2-(4-(((Cyclopropylmethyl)amino)methyl)-6-methylpyridin-2-yl)-6-(4-methoxy-2-(4-methyl-4H-1,2,4-triazol-3-yl)phenyl)isoindolin-1-one] | < 80 nM | 1000 to 10000 nM
5 | Cc1cc(CNCC2CCC2)cc(N2Cc3ccc(-c4ccc(Cl)cc4-c4nncn4C)cc3C2=O)n1 [Compound 274, 6-(4-Chloro-2-(4-methyl-4H-1,2,4-triazol-3-yl)phenyl)-2-(4-(((cyclobutyl-methyl)amino)methyl)-6-methylpyridin-2-yl)isoindolin-1-one] | < 80 nM | < 300 nM
6 | Cn1cnnc1-c1cc(Cl)ccc1-c1ccc2c(c1)C(=O)N(c1cc(C(C)(C)NCC3CC3)cc(Cl)n1)C2 [Compound 275, 6-(4-Chloro-2-(4-methyl-4H-1,2,4-triazol-3-yl)phenyl)-2-(6-chloro-4-(2-((cyclopropylmethyl)amino)propan-2-yl)pyridin-2-yl)isoindolin-1-one] | < 80 nM | < 300 nM
7 | Cc1ccc(-c2ccc3c(c2)C(=O)N(c2cc(CNCC4CC4)cc(C)n2)C3)c(-c2nncn2C)c1 [Compound 277, 2-(4-(((Cyclopropylmethyl)amino)methyl)-6-methylpyridin-2-yl)-6-(4-methyl-2-(4-methyl-4H-1,2,4-triazol-3-yl)phenyl)isoindolin-1-one] | < 80 nM | 1000 to 10000 nM
8 | Cc1cc(CNCC2CC(F)(F)C2)cc(N2Cc3ccc(-c4ccc(Cl)cc4-c4nncn4C)cc3C2=O)n1 [Compound 279, 6-(4-Chloro-2-(4-methyl-4H-1,2,4-triazol-3-yl)phenyl)-2-(4-((((3,3-difluoro-cyclobutyl)methyl)amino)methyl)-6-methylpyridin-2-yl)isoindolin-1-one] | < 80 nM | < 300 nM
9 | Cc1cc(C(C)NCC2CC(F)(F)C2)cc(N2Cc3ccc(-c4ccc(Cl)cc4-c4nncn4C)cc3C2=O)n1 (stereo not shown) [Compound 281, 6-(4-Chloro-2-(4-methyl-4H-1,2,4-triazol-3-yl)phenyl)-2-(4-(1-(((3,3-difluoro-cyclobutyl)methyl)amino)ethyl)-6-methylpyridin-2-yl)isoindolin-1-one] | < 80 nM | < 300 nM
10 | Cc1cc(C(C)NCC2CC2)cc(N2Cc3ccc(-c4ccc(F)cc4-c4nncn4C)cc3C2=O)n1 (stereo not shown) [Compound 282, 2-(4-(1-((Cyclopropylmethyl)amino)ethyl)-6-methylpyridin-2-yl)-6-(4-fluoro-2-(4-methyl-4H-1,2,4-triazol-3-yl)phenyl)isoindolin-1-one] | < 80 nM | < 300 nM
11 | Cc1cc(CNCC2CC2)cc(N2Cc3c(F)cc(-c4ccc(F)cc4-c4nncn4C)cc3C2=O)n1 [Compound 296] | < 80 nM | 1000 to 10000 nM
12 | [2H]C([2H])([2H])n1cnnc1-c1cc(F)ccc1-c1ccc2c(c1)C(=O)N(c1cc(CNCC3CC3)cc(C)n1)C2 [Compound 310, 2-(4-(((Cyclopropylmethyl)amino)methyl)-6-methylpyridin-2-yl)-6-(4-fluoro-2-(4-(methyl-d3)-4H-1,2,4-triazol-3-yl)phenyl)isoindolin-1-one] | < 80 nM | < 300 nM

Results, then the compound that gave them:

Row | IC50 [1] | EC50 [2] | Compound
13 | < 80 nM | < 300 nM | Cc1cc(CNCC2CC2)cc(N2Cc3ccc(-c4c(F)cc(F)cc4-c4nncn4C)cc3C2=O)n1 [Compound 262]
14 | < 80 nM | < 300 nM | Cn1cnnc1-c1cc(F)ccc1-c1ccc2c(c1)C(=O)N(c1cc(CNCC3CC3)cc(C(F)(F)F)n1)C2 [Compound 265, 2-(4-(((Cyclopropylmethyl)amino)methyl)-6-(trifluoromethyl)pyridin-2-yl)-6-(4-fluoro-2-(4-methyl-4H-1,2,4-triazol-3-yl)phenyl)isoindolin-1-one]
15 | < 80 nM | 300 to 1000 nM | Cc1cc(CNCC2CC2(F)F)cc(N2Cc3ccc(-c4ccc(Cl)cc4-c4nncn4C)cc3C2=O)n1 (stereo not shown) [Compound 269]
16 | < 80 nM | < 300 nM | Cc1cc(C(C)NCC2CCC2)cc(N2Cc3ccc(-c4ccc(Cl)cc4-c4nncn4C)cc3C2=O)n1 (stereo not shown) [Compound 278, 6-(4-Chloro-2-(4-methyl-4H-1,2,4-triazol-3-yl)phenyl)-2-(4-(1-((cyclobutyl-methyl)amino)ethyl)-6-methylpyridin-2-yl)isoindolin-1-one]
17 | < 80 nM | 300 to 1000 nM | Cc1cc(CNCC2CC2)cc(N2Cc3ccc(-c4ccc(Cl)cc4-c4nncn4C)cc3C2=O)c1 [Compound 280, 6-(4-Chloro-2-(4-methyl-4H-1,2,4-triazol-3-yl)phenyl)-2-(3-(((cyclopropyl-methyl)amino)methyl)-5-methylphenyl)isoindolin-1-one]
18 | < 80 nM | 300 to 1000 nM | Cc1cc(C(C)(C)NCC2CC2)cc(N2Cc3ccc(-c4ccc(F)cc4-c4nncn4C)cc3C2=O)n1 [Compound 293, 2-(4-(2-((Cyclopropylmethyl)amino)propan-2-yl)-6-methylpyridin-2-yl)-6-(4-fluoro-2-(4-methyl-4H-1,2,4-triazol-3-yl)phenyl)isoindolin-1-one]
19 | < 80 nM | 1000 to 10000 nM | CCn1cnnc1-c1cc(F)ccc1-c1ccc2c(c1)C(=O)N(c1cc(CNCC3CC3)cc(C)n1)C2 [Compound 294, 2-(4-(((Cyclopropylmethyl)amino)methyl)-6-methylpyridin-2-yl)-6-(2-(4-ethyl-4H-1,2,4-triazol-3-yl)-4-fluorophenyl)isoindolin-1-one]
20 | < 80 nM | < 300 nM | CCC(C)NCc1cc(C)nc(N2Cc3ccc(-c4ccc(F)cc4-c4nncn4C)cc3C2=O)c1 (stereo not shown) [Compound 295, 2-(4-((sec-Butylamino)methyl)-6-methylpyridin-2-yl)-6-(4-fluoro-2-(4-methyl-4H-1,2,4-triazol-3-yl)phenyl)isoindolin-1-one]
21 | < 80 nM | < 300 nM | Cc1cc(CNC(C2CC2)C2CC2)cc(N2Cc3ccc(-c4ccc(F)cc4-c4nncn4C)cc3C2=O)n1 [Compound 298, 2-(4-(((Dicyclopropylmethyl)amino)methyl)-6-methylpyridin-2-yl)-6-(4-fluoro-2-(4-methyl-4H-1,2,4-triazol-3-yl)phenyl)isoindolin-1-one]
22 | < 80 nM | 300 to 1000 nM | Cc1cc(CNCCC(C)C)cc(N2Cc3ccc(-c4ccc(F)cc4-c4nncn4C)cc3C2=O)n1 [Compound 300, 6-(4-Fluoro-2-(4-methyl-4H-1,2,4-triazol-3-yl)phenyl)-2-(4-((isopentylamino)-methyl)-6-methylpyridin-2-yl)isoindolin-1-one]
23 | < 80 nM | 300 to 1000 nM | COCCNCc1cc(C)nc(N2Cc3ccc(-c4ccc(F)cc4-c4nncn4C)cc3C2=O)c1 [Compound 302, 6-(4-Fluoro-2-(4-methyl-4H-1,2,4-triazol-3-yl)phenyl)-2-(4-(((2-methoxyethyl)-amino)methyl)-6-methylpyridin-2-yl)isoindolin-1-one]
24 | < 80 nM | 300 to 1000 nM | Cc1cc(CNCC(C)(C)C)cc(N2Cc3ccc(-c4ccc(F)cc4-c4nncn4C)cc3C2=O)n1 [Compound 303]
25 | < 80 nM | 1000 to 10000 nM | Cc1cc(CNCC2CC2)cc(N2Cc3ccc(-c4ccc(F)cc4-c4nccn4C)cc3C2=O)n1 [Compound 304]
26 | < 80 nM | < 300 nM | Cc1cc(CNCC(C)C)cc(N2Cc3ccc(-c4ccc(F)cc4-c4nncn4C)cc3C2=O)n1 [Compound 305]
27 | < 80 nM | < 300 nM | Cc1cc(CNCCC2CC2)cc(N2Cc3ccc(-c4ccc(F)cc4-c4nncn4C)cc3C2=O)n1 [Compound 307, 2-(4-(((2-Cyclopropylethyl)amino)methyl)-6-methylpyridin-2-yl)-6-(4-fluoro-2-(4-methyl-4H-1,2,4-triazol-3-yl)phenyl)isoindolin-1-one]
28 | < 80 nM | 1000 to 10000 nM | Cc1cc(CNCC2(CO)CCC2)cc(N2Cc3ccc(-c4ccc(F)cc4-c4nncn4C)cc3C2=O)n1 [Compound 308]
29 | < 80 nM | < 300 nM | Cc1cc(CNCC(C)(C)O)cc(N2Cc3ccc(-c4ccc(F)cc4-c4nncn4C)cc3C2=O)n1 [Compound 309, 6-(4-Fluoro-2-(4-methyl-4H-1,2,4-triazol-3-yl)phenyl)-2-(4-(((2-hydroxy-2-methylpropyl)amino)methyl)-6-methylpyridin-2-yl)isoindolin-1-one]
